Where “and” joins values, the source holds several entries; their conditions need not be identical. Equal values may be shown once.
Key:
[1] = tested on: rats with middle cerebral artery occlusion (MCAO); test: Forelimb placing test, MCAO rats, double crossover study (Example 2); format: in vivo, Sprague Dawley rat
Description: (§1) 4-AP was evaluated for its ability to promote functional sensorimotor improvement following ischemic stroke in rats with stable motor deficits at times remote from their ischemic events. The animal model mimics the conditions in human ischemic stroke and is produced by middle cerebral artery occlusion (MCAO), which results in extensive infarction in cerebral cortex and striatum, including the cortical spinal tract (white matter).
(§2) In particular, the MCAO model in Sprague Dawley rats that was utilized in the experiments presented below mimics the conditions in human ischemic stroke. In this model, focal cerebral infarcts were made by permanent occlusion of the proximal right middle cerebral artery (MCA) using a modification of the method of Tamura et al. (No To Shinkei 1986; 38:747-51). Briefly, the temporalis muscle was bisected and reflected through an incision made midway between the eye and the ear canal. The proximal MCA was exposed through a subtemporal craniectomy without removing the zygomatic arch and without transecting the facial nerve.
(§3) Dosing and Treatment: Rats were treated in accordance with the dosing schedule shown in Tables 2A, 2B, 3 and FIG. 2, with each Phase being a two week period of time. A solution of 4-AP was used in this experiment. Dosing was started at 4 weeks after ischemic event. 4-aminopyridine was dissolved in water for injection (WFI, Cellgro) and sterile filtered. Final concentrations of 0.315 mg/mL or 1.0 mg/mL of 4-aminopyridine were delivered at 2 mL/kg by gastric gavage, resulting in final doses of 0.63 mg/kg and 2 mg/kg respectively. Vehicle control treatment was WFI delivered at 2 mL/kg by gastric gavage. This study was divided into three treatment phases (1-3) with each randomized cohort of animals receiving a different dose level during each of the treatment phases. Starting on day 30 after MCAO (Day 30, start of phase 1), the animals received gavage dosing of solutions (2 mL/kg) approximately 12 hours apart, for a total of five doses. The same schedule was repeated with different treatment on Day 44 and Day 58 for phase 2 and 3 of the study, respectively. Animals were not treated during the 10 days between phases (washout period).
Treatment groups: Dosing was started 4 weeks after MCAO surgery. During these 4 weeks, weekly behavioral assessments, as defined below, were performed. Two dose levels of 4-AP plus vehicle control were assessed, with treatment starting at 4 weeks after ischemic event. […] Following the final behavioral assessment, drug was withdrawn for 10 or 11 days, behavior was re-assessed, and then animals were re-challenged with a cross-over treatment (Phase 2 of Table 2B) as described in Tables 2A, 2B and 3, followed by the same behavioral testing and dosing regimen. […]

[2] = tested on: rats with middle cerebral artery occlusion (MCAO); test: Hindlimb placing test, MCAO rats, double crossover study (Example 2); format: in vivo, Sprague Dawley rat; parameters: Hindlimb Placing Total Score, individual animals / Hindlimb Placing Total Score, Mean: scale not given here; conditions: for Hindlimb Placing Total Score, individual animals: one value per rat; for Hindlimb Placing Total Score, Mean: N 15
Description: as §1, §2, §3
Treatment groups: Dosing was started 4 weeks after MCAO surgery. During these 4 weeks, weekly behavioral assessments, as defined below, were performed. Two dose levels of 4-AP plus vehicle control were assessed, with treatment starting at 4 weeks after ischemic event. All dosing was via gastric gavage, volume not to exceed 2 mL/kg. Animals were given the first dose and behavioral assessments were performed starting 60 minutes after dosing. Animals then received the second dose that day at the appropriate time and b.i.d (preferably every 12 hours) thereafter for 2 more days (3 total days of dosing, 5 total doses). One hour after the 5th dose, animals were subjected to behavioral assessments as defined below. Following the final behavioral assessment, drug was withdrawn for 10 or 11 days, behavior was re-assessed, and then animals were re-challenged with a cross-over treatment (Phase 2 of Table 2B) as described in Tables 2A, 2B and 3, followed by the same behavioral testing and dosing regimen. This cross-over was repeated one more time as well (Phase 3 of Table 2B) (see FIG. 2).
Behavioral test details: Behavioral evaluations were done by evaluators blinded to treatment assignment. Blinded assessments of sensorimotor function were performed just prior to MCAO surgery, 24 hours after MCAO surgery and weekly thereafter until the first phase of dosing using limb placing and body swing behavioral tests. As described above, behavioral assessments were timed exactly with dosing times. Animals were tested one hour after the 1st and 5th doses of each phase (i.e., Days 30 and 32 of the first phase, Days 44 and 46 of the second phase; and Days 58 and 60 of the third phase); animals were also tested during the washout periods on Days 42 and 56. […]

[3] = Group 3 (sequence vhl), D44 after MCAO, phase 2, high dose
[4] = Group 3 (sequence vhl), D46 after MCAO, phase 2, high dose
[5] = Group 3 (sequence vhl), D58 after MCAO, phase 3, low dose
[6] = Group 3 (sequence vhl), D60 after MCAO, phase 3, low dose

**Q.** Which “Forelimb function, low dose compared to vehicle, first mixed model” value ([1]; 0.63 mg/kg b.i.d. p.o., level 0.05) does the source give for `Nc1ccncc1` [4-aminopyridine] here?
**A.** didn't show statistical significant improvement

**Q.** And the “Forelimb function, low dose compared to vehicle, second mixed model” value ([1]; 0.63 mg/kg b.i.d. p.o., p<0.0001)?
**A.** significant difference

**Q.** What about the “Forelimb function, high dose compared to low dose and vehicle” value ([1]; 2 mg/kg b.i.d. p.o., first mixed model, p=0.0334 vs low, p=0.001 vs vehicle) of the same molecule?
**A.** significantly improved the forelimb function

**Q.** And the “Effect on forelimb function (FIG. 3)” value ([1]; low or high dose, 4 weeks post ischemic brain injury, dose-responsive, reversible)?
**A.** effective to improve forelimb function

**Q.** What about the “Hindlimb function, low dose compared to vehicle” value ([2]; 0.63 mg/kg b.i.d. p.o., first mixed model, p=0.0027) of the same molecule?
**A.** significantly improved the hindlimb function

**Q.** And the “Hindlimb function, high dose compared to vehicle” value ([2]; 2 mg/kg b.i.d. p.o., first mixed model, p<0.0001)?
**A.** significantly improved the hindlimb function

**Q.** And the “Hindlimb Placing Total Score, individual animals” value ([2]; Group 2 (sequence lvh), D30 after MCAO, phase 1, low dose)?
**A.** 2.50 and 1.50 (6×) and 2.00 (5×) and 1.00 and 0.50 and 3.00

**Q.** What about the “Hindlimb Placing Total Score, individual animals” value ([2]; Group 2 (sequence lvh), D32 after MCAO, phase 1, low dose) of the same molecule?
**A.** 2.00 (2×) and 1.00 (4×) and 1.50 (8×) and 0.50

**Q.** And the “Hindlimb Placing Total Score, individual animals” value ([2]; Group 2 (sequence lvh), D58 after MCAO, phase 3, high dose)?
**A.** 2.00 (2×) and 0.00 (5×) and 1.00 and 1.50 (4×) and 0.50 (3×)

**Q.** And the “Hindlimb Placing Total Score, individual animals” value ([2]; Group 2 (sequence lvh), D60 after MCAO, phase 3, high dose)?
**A.** 0.50 (5×) and 0.00 (9×) and 1.00

**Q.** What about the “Hindlimb Placing Total Score, Mean” value [2, 3] of the same molecule?
**A.** 0.90

**Q.** What about the “Hindlimb Placing Total Score, individual animals” value [2, 3] of the same molecule?
**A.** 2.00 (2×) and 0.00 (3×) and 1.50 and 1.00 (2×) and 0.50 (2×)

**Q.** What about the “Hindlimb Placing Total Score, Mean” value [2, 4] of the same molecule?
**A.** 0.30

**Q.** And the “Hindlimb Placing Total Score, individual animals” value [2, 4]?
**A.** 1.00 and 0.00 (6×) and 0.50 (3×)

**Q.** What about the “Hindlimb Placing Total Score, Mean” value [2, 5] of the same molecule?
**A.** 0.80

**Q.** And the “Hindlimb Placing Total Score, individual animals” value [2, 5]?
**A.** 1.50 and 0.50 (3×) and 1.00 (3×) and 3.00 and 0.00 (2×)

**Q.** And the “Hindlimb Placing Total Score, Mean” value [2, 6]?
**A.** 0.70

**Q.** What about the “Hindlimb Placing Total Score, individual animals” value [2, 6] of the same molecule?
**A.** 1.50 and 1.00 (3×) and 0.50 (2×) and 2.00 and 0.00 (3×)

**Q.** What about the “Effect on hindlimb function (FIGS. 4A-D)” value ([2]; low or high dose, 4 weeks post ischemic brain injury, dose responsive, reversible) of the same molecule?
**A.** effective to improve hindlimb function
